Activity calls are given as the source filed them. The calls are words filed in the database; no cut-off is given here.
Assays:
Type in all cases: functional, subcellular
ONS [1] = test: Anti-parkinson's disease activity in human ONS cells assessed as negative mitochondrial marker intensity in cytoplasm at 5 uM by heat map analysis
ONS [2] = test: Anti-parkinson's disease activity in human ONS cells assessed as negative mitochondrial marker intensity in outer region of cytoplasm at 5 uM by heat map analysis
ONS [3] = test: Anti-parkinson's disease activity in human ONS cells assessed as negative mitochondrial marker intensity in inner region of cytoplasm at 5 uM by heat map analysis
ONS [4] = test: Anti-parkinson's disease activity in human ONS cells assessed as lysosome marker intensity in cytoplasm at 5 uM by heat map analysis
ONS [5] = test: Anti-parkinson's disease activity in human ONS cells assessed as lysosome marker intensity in outer region of cytoplasm at 5 uM by heat map analysis
ONS [6] = test: Anti-parkinson's disease activity in human ONS cells assessed as lysosome marker intensity in inner region of cytoplasm at 5 uM by heat map analysis
ONS [7] = test: Anti-parkinson's disease activity in human ONS cells assessed as early endosome marker intensity in cytoplasm at 5 uM by heat map analysis
ONS [8] = test: Anti-parkinson's disease activity in human ONS cells assessed as early endosome marker intensity in outer region of cytoplasm at 5 uM by heat map analysis
ONS [9] = test: Anti-parkinson's disease activity in human ONS cells assessed as early endosome marker intensity in inner region of cytoplasm at 5 uM by heat map analysis
ONS [10] = test: Anti-parkinson's disease activity in human ONS cells assessed as alpha-tubulin marker intensity in cytoplasm at 5 uM by heat map analysis
ONS [11] = test: Anti-parkinson's disease activity in human ONS cells assessed as alpha-tubulin marker intensity in inner region of cytoplasm at 5 uM by heat map analysis
ONS [12] = test: Anti-parkinson's disease activity in human ONS cells assessed as alpha-tubulin marker intensity in outer region of cytoplasm at 5 uM by heat map analysis
ONS [13] = test: Anti-parkinson's disease activity in human ONS cells assessed as LC3B marker intensity in cytoplasm at 5 uM by heat map analysis
ONS [14] = test: Anti-parkinson's disease activity in human ONS cells assessed as LC3B marker intensity in outer region of cytoplasm at 5 uM by heat map analysis
ONS [15] = test: Anti-parkinson's disease activity in human ONS cells assessed as LC3B marker intensity in inner region of cytoplasm at 5 uM by heat map analysis

## COc1cc([C@H]2OC[C@H]3[C@@H]2CO[C@H]3c2ccc3c(c2)OCO3)ccc1O
ONS [1]
  Activity: inactive
ONS [2]
  Activity: inactive
ONS [3]
  Activity: inactive
ONS [4]
  Activity: inactive
ONS [5]
  Activity: inactive
ONS [6]
  Activity: inactive
ONS [7]
  Activity: inactive
ONS [8]
  Activity: inactive
ONS [9]
  Activity: inactive

## C=CCc1cc(OC)c(O)c(OC)c1
ONS [10]
  Activity: Active
ONS [11]
  Activity: Active
ONS [12]
  Activity: Active
ONS [4]
  Activity: Active
ONS [5]
  Activity: Active
ONS [6]
  Activity: Active
ONS [7]
  Activity: Active
ONS [8]
  Activity: Active
ONS [9]
  Activity: Active

## C=CCc1cc(OC)c(OC)c(OC)c1
ONS [10]
  Activity: Active
ONS [11]
  Activity: Active
ONS [12]
  Activity: Active
ONS [4]
  Activity: Active
ONS [5]
  Activity: Active
ONS [6]
  Activity: Active
ONS [7]
  Activity: Active
ONS [8]
  Activity: Active
ONS [9]
  Activity: Active

## O=C(O)/C=C/c1ccc(O)cc1
ONS [1]
  Activity: inactive
ONS [2]
  Activity: inactive
ONS [3]
  Activity: inactive
ONS [4]
  Activity: inactive
ONS [5]
  Activity: inactive
ONS [6]
  Activity: inactive
ONS [7]
  Activity: inactive
ONS [8]
  Activity: inactive
ONS [9]
  Activity: inactive

## COc1cc([C@H]2OC[C@H]3[C@@H]2CO[C@@H]3c2ccc3c(c2)OCO3)ccc1O
ONS [1]
  Activity: Active
ONS [2]
  Activity: Active
ONS [3]
  Activity: Active
ONS [13]
  Activity: Active
ONS [14]
  Activity: Active
ONS [15]
  Activity: Active

## C/C=C/C=C/CC/C=C/C=C/C(=O)NCC(C)C
ONS [1]
  Activity: Active
ONS [2]
  Activity: Active
ONS [3]
  Activity: Active
ONS [13]
  Activity: Active
ONS [14]
  Activity: Active
ONS [15]
  Activity: Active

## C/C=C\CC/C=C/C=C/C(=O)NCC(C)C
ONS [10]
  Activity: Active
ONS [11]
  Activity: Active
ONS [12]
  Activity: Active
ONS [4]
  Activity: Active
ONS [5]
  Activity: Active
ONS [6]
  Activity: Active
ONS [7]
  Activity: Active
ONS [8]
  Activity: Active
ONS [9]
  Activity: Active

## O=C(O)c1ccc(O)cc1
ONS [10]
  Activity: Active
ONS [11]
  Activity: Active
ONS [12]
  Activity: Active
ONS [4]
  Activity: Active
ONS [5]
  Activity: Active
ONS [6]
  Activity: Active
ONS [7]
  Activity: Active
ONS [8]
  Activity: Active
ONS [9]
  Activity: Active

## c1cc2c(cc1[C@H]1OC[C@H]3[C@@H]1CO[C@@H]3c1ccc3c(c1)OCO3)OCO2
ONS [1]
  Activity: inactive
ONS [2]
  Activity: inactive
ONS [3]
  Activity: inactive
ONS [4]
  Activity: inactive
ONS [5]
  Activity: inactive
ONS [6]
  Activity: inactive
ONS [7]
  Activity: inactive
ONS [8]
  Activity: inactive
ONS [9]
  Activity: inactive

## C=CCc1cc2c(cc1OC)OCO2
ONS [10]
  Activity: Active
ONS [11]
  Activity: Active
ONS [12]
  Activity: Active
ONS [4]
  Activity: Active
ONS [5]
  Activity: Active
ONS [6]
  Activity: Active
ONS [7]
  Activity: Active
ONS [8]
  Activity: Active
ONS [9]
  Activity: Active

## c1cc2c(cc1[C@H]1OC[C@H]3[C@@H]1CO[C@H]3c1ccc3c(c1)OCO3)OCO2
ONS [10]
  Activity: Active
ONS [11]
  Activity: Active
ONS [12]
  Activity: Active
ONS [4]
  Activity: Active
ONS [5]
  Activity: Active
ONS [6]
  Activity: Active
ONS [7]
  Activity: Active
ONS [8]
  Activity: Active
ONS [9]
  Activity: Active

## CCC(=O)c1cc(OC)c(O)cc1O
ONS [10]
  Activity: Active
ONS [11]
  Activity: Active
ONS [12]
  Activity: Active
ONS [4]
  Activity: Active
ONS [5]
  Activity: Active
ONS [6]
  Activity: Active
ONS [7]
  Activity: Active
ONS [8]
  Activity: Active
ONS [9]
  Activity: Active

## CCC(=O)c1ccc2c(c1)OCO2
ONS [10]
  Activity: Active
ONS [11]
  Activity: Active
ONS [12]
  Activity: Active
ONS [4]
  Activity: Active
ONS [5]
  Activity: Active
ONS [6]
  Activity: Active
ONS [7]
  Activity: Active
ONS [8]
  Activity: Active
ONS [9]
  Activity: Active

## C/C=C/C=C\CC/C=C/C=C/C(=O)NCC(C)C
ONS [1]
  Activity: Active
ONS [2]
  Activity: Active
ONS [3]
  Activity: Active
ONS [13]
  Activity: Active
ONS [14]
  Activity: Active
ONS [15]
  Activity: Active

## CCC(=O)c1cc2c(cc1O)OCO2
ONS [1]
  Activity: inactive
ONS [2]
  Activity: inactive
ONS [3]
  Activity: inactive
ONS [4]
  Activity: inactive
ONS [5]
  Activity: inactive
ONS [6]
  Activity: inactive
ONS [7]
  Activity: inactive
ONS [8]
  Activity: inactive
ONS [9]
  Activity: inactive

## C/C=C\C=C/CC/C=C/C=C/C(=O)NCC(C)C
ONS [10]
  Activity: Active
ONS [11]
  Activity: Active
ONS [12]
  Activity: Active
ONS [4]
  Activity: Active
ONS [5]
  Activity: Active
ONS [6]
  Activity: Active
ONS [7]
  Activity: Active
ONS [8]
  Activity: Active
ONS [9]
  Activity: Active

## COc1cc(/C=C/C(=O)O)ccc1O
ONS [10]
  Activity: Active
ONS [11]
  Activity: Active
ONS [12]
  Activity: Active
ONS [4]
  Activity: Active
ONS [5]
  Activity: Active
ONS [6]
  Activity: Active
ONS [7]
  Activity: Active
ONS [8]
  Activity: Active
ONS [9]
  Activity: Active

## COc1cc(C(=O)O)ccc1O
ONS [10]
  Activity: Active
ONS [11]
  Activity: Active
ONS [12]
  Activity: Active
ONS [4]
  Activity: Active
ONS [5]
  Activity: Active
ONS [6]
  Activity: Active
ONS [7]
  Activity: Active
ONS [8]
  Activity: Active
ONS [9]
  Activity: Active

## CCC(=O)c1cc2c(cc1OC)OCO2
ONS [1]
  Activity: inactive
ONS [2]
  Activity: inactive
ONS [3]
  Activity: inactive
ONS [4]
  Activity: inactive
ONS [5]
  Activity: inactive
ONS [6]
  Activity: inactive
ONS [7]
  Activity: inactive
ONS [8]
  Activity: inactive
ONS [9]
  Activity: inactive
